Experimental data from the NIST ThermoML archive (doi:10.1021/je030177j).

Details: Liquid, Capillary tube (Ostwald / Ubbelohde) method

O [water]
viscosity [mPa·s]
Details	297.88 K	319.09 K	340.98 K	370.39 K	408.77 K	447.38 K	483.66 K	538.57 K	574.32 K
10000 kPa	0.893	0.5912	0.4195	0.2947	0.206	0.1576	0.129	0.1005	0.0866
20000 kPa	0.8933	0.589	0.4232	0.2976	0.2107	0.161	0.1314	0.1027	0.0903
30000 kPa	0.8935	0.5978	0.4275	0.3012	0.2132	0.1637	0.134	0.1058	0.0932
